The values below come from publication PMC7326016, “Structural Studies of Glutamate Dehydrogenase (Isoform 1) From Arabidopsis thaliana, an Important Enzyme at the Branch-Point Between Carbon and Nitrogen Metabolism” (Frontiers in Plant Science, 2020).

In assay [1] the target is T1, Glutamate dehydrogenase isoform 1 (AtGDH1) (Arabidopsis thaliana, UniProt Q43314).
T1 construct: gene GDH1; full-length, 411 residues, homohexamer
Description: crystal structure at […] Å (one closed subunit; ligand captured from E. coli; polder map). The class given is binding.

The target of assay [2] is T1, Glutamate dehydrogenase isoform 1 (AtGDH1). The assay can be described thus: ITC (in presence of […] 2OG) and crystal structure at […] Å. The class given is binding.

T1 sequence (Q43314 whole entry, canonical isoform): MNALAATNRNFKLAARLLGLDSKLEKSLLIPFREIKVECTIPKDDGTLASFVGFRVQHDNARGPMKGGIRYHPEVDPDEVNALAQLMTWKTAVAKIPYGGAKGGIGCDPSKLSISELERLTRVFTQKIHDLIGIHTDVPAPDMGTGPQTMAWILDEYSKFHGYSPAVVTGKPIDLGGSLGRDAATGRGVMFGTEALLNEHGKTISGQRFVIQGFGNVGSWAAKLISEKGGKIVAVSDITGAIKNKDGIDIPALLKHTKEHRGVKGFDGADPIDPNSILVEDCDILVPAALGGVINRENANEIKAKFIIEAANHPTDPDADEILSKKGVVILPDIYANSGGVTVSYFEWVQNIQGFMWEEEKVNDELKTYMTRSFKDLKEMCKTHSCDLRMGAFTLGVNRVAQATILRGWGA

Turning to `O=C(O)CCC(=O)C(=O)O` [2-oxoglutarate], the “crystal structure at 2.03 Å (one closed subunit); ligand captured from E. coli; p” value in assay [1] is reported as “the closed conformation subunit contains 2OG, the GDH reaction product, bound in the active site”.
As usually defined, the Kd is the free concentration of one partner at which half of the binding sites on the other are occupied at equilibrium, for simple one-to-one binding. `NC(=O)c1ccc[n+]([C@@H]2O[C@H](COP(=O)([O-])OP(=O)(O)OC[C@H]3O[C@@H](n4cnc5c(N)ncnc54)[C@H](O)[C@@H]3O)[C@@H](O)[C@H]2O)c1` [NAD^+]: the Kd in assay [2] was 72 ± 6 µM.
